# From PMC12454603 (Archives of Toxicology, 2025)
# “And” between values parts separate entries of the source, which are not always exact repeats. Equal entries are not always repeated.
# Columns and labels:
# [1] = Sulfation of 3-OH-8-MBaP in incubations with rat liver S9; type: in vitro ADME; details: rat, rat liver S9, pH 7.4, rat liver S9, PAPS
# Procedure: (§1) The conjugation of 3-OH-8-MBaP by sulfation was studied in incubations with rat liver S9 in vitro. The incubation time and S9 protein concentration were optimized to ascertain linearity of the sulfation reaction with respect to time and amount of protein. The 200 µL incubation mixture consisted of (final concentrations) […] Tris buffer (pH 7.4), 0.1 mg/ml rat liver S9, 0.2 mM PAPS and 0–100 µM 3-OH-8-MBaP. No metabolites were detected in control incubations without either rat liver S9 or co-factor PAPS. After 1-min pre-incubation of the incubation mixture without substrate, the reaction was initiated by adding substrate from a 100 times concentrated stock solution in DMSO (final concentration 1% DMSO (v/v)). The incubation mixture was incubated at 37 °C for 70 min after which 100 µL ice-cold acetonitrile was added to the incubation mixture to terminate the reaction. The incubation mixture was subsequently centrifuged at 3717g at 4 °C for 5 min. The supernatant was collected for subsequent UPLC analysis.
# (§2) An Acquity UPLC system with a photodiode array (PDA) detector was used to quantify the metabolites formed in the glucuronidation and sulfation incubations. The supernatants of the incubation samples were injected onto an Acquity UPLC BEH® C18 column ([…], 1.7 µm, Waters, Milford, MA). The total running time per sample was 22 min with a flow rate of 0.6 ml/min. The temperature of column and auto sampler was 40 °C and 10 °C, respectively. The injection volume was 3.5 µL and the detection wavelength ranged from 190 to 400 nm. Two eluents were used including A (nanopure with 0.1% (v/v) TFA) and B (acetonitrile with 0.1% (v/v) TFA). The gradient elution started from 90% A and 10% B applied from 0.0 min to 0.5 min, which was changed to 10% A and 90% B from 0.5 to 15.5 min and then kept at 10% A and 90% B from 15.5 min to 18.5 min, and changed back to 90% A and 10% B from 18.5 to 22.0 min. Metabolites were quantified as previously described in our study on microsomal metabolism of BaP and several of its methyl substituted analogs (Wang et al [2022]).
# (§3) The concentration of the glucuronidated and sulfated metabolites was further used to calculate the velocity of the enzymatic reaction expressed in nmol/min/mg S9 protein. The curve reflecting the substrate (3-OH-8-MBaP) concentration-dependent velocity of the metabolite formation was fitted by the Michaelis–Menten equation using GraphPad Prism 5 (California, USA). The kinetic constants derived included the Km (µM) and Vmax (nmol/min/mg S9 protein).
# (§4) 3-OH-8-MBaP was subsequently modeled to be conjugated by glucuronidation and sulfation in the liver. The kinetic constants for these conjugation reactions were determined in incubation experiments described in Sect. […] The scaling factors from rat liver microsomes and rat liver S9 to the whole liver were 45 mg microsomal protein/g liver and 125 mg S9 protein/g liver, respectively (Houston and Galetin [2008]).
# rat liver S9 = assay: as above; type: in vitro ADME
# Procedure: as §1, §2, §3, §4
smiles,measurement,setting,value
"Cc1ccc2c(c1)cc1ccc3c(O)ccc4ccc2c1c43 [3-OH-8-MBaP, 3-Hydroxy-8-methyl-benzo[a]pyrene]",Km at 70 min,[1],26 µM
same,Km,"rat liver S9; rat liver S9, PAPS",26.1 µM
same,"Vmax, sulfation of 3-OH-8-MBaP","rat liver S9; rat liver S9, PAPS",0.15 nmol/min/mg S9 protein and 0.15^e nmol/min/mg S9 protein
same,"Scaled Vmax, sulfation of 3-OH-8-MBaP","rat liver S9; scaled to whole liver, liver weight 9.1 g",10 µmol/h/liver
same,"Scaled Vmax, sulfation of 3-OH-8-MBaP",rat liver S9; scaled with 125 mg S9 protein/g liver,1.16 µmol/h/g liver
